Test results: article PMC3939009, “Thrombin inhibitory activity of some polyphenolic compounds” (Medicinal Chemistry Research, 2013)
Read-outs that look alike come from different tables or passages of the source.

Assays:
human thrombin [1] = biological target: T1, human thrombin (Homo sapiens, UniProt P00734); assay: Amidolytic activity of thrombin (hydrolysis of chromogenic substrate D-Phe-Pip-Arg-pNA); assay type: biochemical; parameters: Thrombin, also known as an active plasma coagulation factor II; purchased Sigma-Aldrich Chemical Co. (St. Louis, MO, USA) T7009; host or cells: purified from human plasma; details: at 375 μM substrate concentration; compounds 0.1–1,000 μM, preincubation 10 min 37 °C; read-out: IC50, amidolytic activity of human thrombin
Experimental: All tested compounds were dissolved in 50 % DMSO to the initial concentration of 10 mM; other solutions of compounds were also prepared in 50 % DMSO (prepared in 50 mM TBS, pH 7.4). The final concentration of DMSO in thrombin samples was 5 %. To prepare thrombin control samples, the same volume of solvent (50 % DMSO prepared in 50 mM TBS, pH 7.4) was added as in the case of the compound volume and warmed for 10 min to 37 °C.
To each reaction well, 40 μl of 3 mM chromogenic substrate was added. To initiate the chromogenic reaction, 280 μl of control thrombin (without tested compounds) or thrombin after preincubation with a polyphenolic compound to every reaction well in the same moment was added. The absorbance value was monitored every 12 s for 10 min. The maximal velocity of the reaction (V max, Δm OD/min) for each absorbance curve was determined. IC50 value (parameter) for every polyphenolic compound from inhibition curves was estimated.

human thrombin [2] = biological target: T1, human thrombin; assay: BIAcore (SPR) analysis of binding to immobilized thrombin; parameters: Thrombin, also known as an active plasma coagulation factor II; purchased Sigma-Aldrich Chemical Co. (St. Louis, MO, USA) T7009
Experimental: The biosensor assays were performed using the BIAcore 1000 biosensor system. All biosensor analyses were performed with a phosphate-buffered saline (PBS), pH 7.4, as a running buffer. […] The immobilization of thrombin on a biosensor carboxylmethyl dextran surface was performed according to the BIA applications Handbook (BIAcore, [1994]). The process of protein immobilization was performed on a sensor chip CM5 surface by the positively charged functional groups of protein amino acids. The immobilization process consisted of four steps: preconcentration, activation, ligand immobilization and deactivation of the residual NHS esters. […] The temperature during the whole experiment was also constant and was set to 25.0 °C. […] Each of these solutions (10 μl) was injected into an empty sensor chip channel. […] The amount of injected activation mixture was modified, to regulate the amount of immobilized ligand. […] The conditions of the latter experiments were established by numerous pre-tests. The assessed parameters included: the buffer flow rate, the volume of analyte injection, the concentration of analytes, types and concentration of regenerators. […] For each injection of analyte solution, the volume used was 100 μl. After injection of analyte was completed, the dissociation step occurred and the level of the interaction ligand-analyte was measured. During dissociation, the particles non-covalently bound to the ligand were washed out from the working channel. […] To do these calculations, the formulas presented below were used: the association rate […]]; the dissociation rate -d[AB]/dt=kd·[AB]; the equilibrium constants: KA=[AB]/[A]·[B]=ka/kd KD=[A]·[B]/[AB]=kd/ka.

[3] = parameters: method as in Mozzicafreddo et al. ([2006]); details: ref Mozzicafreddo et al. ([2006]); cited from earlier work
human thrombin [4] = biological target: T1, human thrombin; assay: Analysis of thrombin inhibition parameters (Lineweaver–Burk curves); assay type: biochemical; parameters: Thrombin, also known as an active plasma coagulation factor II; purchased Sigma-Aldrich Chemical Co. (St. Louis, MO, USA) T7009
Experimental: Absorbance was monitored every 12 s for 10 min in a 96-well microplate reader. The velocity of reaction was expressed as the increase in product (pNA) over time (∆ μmol/min) using a computer program Mikcroplate Manager® 8 and the extinction coefficient of p-nitroaniline. […] Then, the Lineweaver–Burk ([1934]) curves for thrombin in the presence and in the absence of polyphenol compounds were plotted. The Lineweaver–Burk equation, which is a transformation of the Michaelis–Menten model, looks as follows: 1/V=Km/Vmax·1/[S]+1/Vmax

human thrombin [5] = biological target: T1, human thrombin; assay: Thrombin-induced fibrinogen polymerization; assay type: biochemical; parameters: Thrombin, also known as an active plasma coagulation factor II; purchased Sigma-Aldrich Chemical Co. (St. Louis, MO, USA) T7009; details: thrombin preincubated with compound
Experimental: In these preparations, to nine volumes of thrombin one volume of polyphenolic compounds was added (final thrombin concentration was 15.8 nM). All tested compounds were dissolved in 50 % DMSO to the initial concentration of 10 mM; other solutions of compounds were also prepared in 50 % DMSO (prepared in 50 mM TBS, pH 7.4). […] Polymerization of fibrin was monitored at 595 nm using a 96-well microtiter plate reader. To each reaction well of the microtiter plate, 100 μl of fibrinogen (3 mg/ml) in 50 mM TBS and 5 mM CaCl2, pH 7.4, were added. […] The maximal velocity of the polymerization process (V max, Δm OD/min) for each absorbance curve was determined (Nowak et al., [2007]).

human thrombin [6] = assay: Thrombin-induced platelet aggregation (turbidimetric); assay type: cell-based; details: compound 50 μM preincubated with thrombin
Experimental: Blood samples in 0.32 % sodium citrate from healthy volunteers without cardiovascular disorders were collected, untreated with antiplatelet drugs. […] Platelets were isolated from PRP using BSA–Sepharose 2B gel filtration method according to Walkowiak et al. ([2000]). […] In these preparations, to nine volumes of thrombin one volume of polyphenolic compounds was added (final thrombin concentration was 15.8 nM). All tested compounds were dissolved in 50 % DMSO to the initial concentration of 10 mM; other solutions of compounds were also prepared in 50 % DMSO (prepared in 50 mM TBS, pH 7.4). […] The platelet aggregation was measured by turbidimetric method (Saluk-Juszczak et al., [2007]) using dual-channel Chrono-log optical aggregometer (Chronolog, USA). […] Platelet suspensions were pre-warmed at 37 °C with stirring.

Q: What does the source list for `O=c1c(O)c(-c2ccc(O)c(O)c2)oc2cc(O)cc(O)c12` [Quercetin, quercetin]?
A: IC50 (human thrombin [1]): 1500 nM; K A, equilibrium association constant (human thrombin [2]): 2.59 × 10^7 M^–1; K A, equilibrium association constant (human thrombin [2]; 5 sensorgrams, 50 to 1,000 μM): 2.59e+07 M⁻¹; Kd (human thrombin [2]; 5 sensorgrams, 50 to 1,000 μM, read-out: K D, equilibrium dissociation constant): 38.7 nM; kon (human thrombin [2]; 5 sensorgrams, 50 to 1,000 μM, read-out: k a, association rate): 43.2 M⁻¹ s⁻¹; koff (human thrombin [2]; 5 sensorgrams, 50 to 1,000 μM, read-out: k d, dissociation rate): 1.67e-06 s⁻¹; Response (RU) (human thrombin [2]; analyte 1,000 μM, thrombin immobilized on CM5 chip): 1,882 RU; Concentration with anti-clotting effect (prolonged thrombin time) [3]: ≥ 100 µM; k cat (human thrombin [4]; compound at IC50 concentration, k cat = V max/E 0, control 29.1): 27.8 s⁻¹; Type of inhibition (human thrombin [4]; from Lineweaver–Burk curves): competitive inhibitors; V max of chromogenic substrate hydrolysis by thrombin (human thrombin [4]; thrombin incubated with compound at IC50 concentration, control 30.7): 29.4 10^−6 mol/min; K m of chromogenic substrate hydrolysis by thrombin (human thrombin [4]; thrombin incubated with compound at IC50 concentration, control 158.7): 633.8 10^−6 M; Effect on thrombin ability to induce fibrinogen polymerization (human thrombin [5]; 10 min 37 °C): inhibition of thrombin ability to induce fibrinogen polymerization; Concentration causing total inhibition of thrombin activity (fibrin polymerization) (human thrombin [5]; Vmax of fibrinogen polymerization at 595 nm): 50 µM; Platelet aggregation, % of control (human thrombin [6]): 4%
